{"source": "paper PMC4062444", "about": "“Mechanisms of U87 Astrocytoma Cell Uptake and Trafficking of Monomeric versus Protofibril Alzheimer’s Disease Amyloid-β Proteins” (PLoS ONE, 2014)", "key": {"astrocytic U87 cells": {"test_system": "astrocytic U87 cells", "conditions": "20 µM Aβ, cited from earlier work", "source_text": "We assumed that U87 cells tolerated the toxic effects of Aβ42 species better than the neurons, particularly because we used relatively low concentrations of Aβ peptides, which could be rapidly cleared by U87 cells and produced negligible cellular toxicity. This property assigns a neuronal protection role to astrocytes because they can promptly clear Aβ ..."}, "[1]": {"test_system": "U87 human brain astrocytoma cell line", "assay": "Uptake of HiLyte Fluor555-tagged Aβ42 peptides by U87 cells (confocal microscopy)", "format": "cell-based", "conditions": "for reduction of oAβ42 uptake by U87 cells / reduction of sAβ42 uptake by U87 cells: inhibitor pretreatment (5 mM amiloride 30 min; 300 nM wortmannin 1 h; 1 mM MβCD 30 min), integrated intracellular fluorescence vs mock-treated cells, >25 cells in each of three experiments; for reduction of oAβ42 uptake by U87 cells: then 0.4 µM HiLyte Fluor555-oAβ42 2 h at 37°C; for reduction of sAβ42 uptake by U87 cells: then 0.4 µM HiLyte Fluor555-sAβ42 2 h at 37°C; for effect of Dyn 1 dominant-negative K44A mutant on uptake: U87 cells expressing GFP-tagged Dyn1 K44A, 0.4 µM peptide 2 h at 37°C", "experimental": "U87 cells were seeded on coverslips and grown at 37°C overnight in complete medium. Uptake experiments were initiated by incubating cells at 37°C with 0.4 µM HiLyte Fluor555-tagged Aβ42 peptides for 2 h, which were diluted in imaging medium (α-MEM without phenol red supplemented with 20 mM HEPES, pH 7.4, and 5% FBS). Cells were subsequently washed three times with ice-cold PBS, fixed with 3.7% PFA for 20 min and stained with 1 µg/ml DAPI diluted in PBS containing 0.1% saponin for 15 min at room temperature. Then, cells were mounted with a mounting solution containing 50% glycerol and 50% PBS. For endocytosis inhibition experiments, cells were pretreated with various endocytotic inhibitors with indicated times followed by Aβ42 peptides uptake in the presence or absence of these inhibitors.\nBriefly, in most cases, the integrated intracellular signals were determined from a 2D projection image of the fluorescence intensities of a Z-stack lacking the most bottom and top planes as they mostly contain plasma membrane signals. The cell outline in each plane was determined by increasing the brightness of the image. In some cases, bright field images were also taken to help identify the cell outlines. The integrated fluorescence within the cell was background-corrected by subtraction of the fluorescence signal surrounding the cell under analysis and its value was then normalized to the mean (average) of the control cells set to 100. For plain cells in the absence or presence of various pharmacological treatment, all intact cells in each image field were used for quantification of Aβ uptake; for cells transfected with plasmids, only the positively transfected cells were used for quantification of Aβ uptake, which was estimated from the EGFP signal in green channel."}, "ThT fluorescence assay": {"assay": "ThT fluorescence assay", "format": "physicochemical", "conditions": "10 µM ThT in deionized water, pH 7.4; ex 450 nm, em 482 nm; Aβ42 0 to 30 µM", "experimental": "The assay was performed according to a standard protocol. A 200 µM aqueous Thioflavin T (ThT) was prepared and filtered through 0.22 µm filter. For measurement, Aβ42 samples (monomers or oligomers) were prepared in 10 µM ThT/deionized water solution, pH 7.4. Immediately after mixing, ThT fluorescence of samples was measured with the excitation wavelength at 450 nm and emission wavelength at 482 nm with 470 nm cut-off by a Microplate Reader (Molecular Devices, Sunnyvale, CA, USA)."}, "[2]": {"assay": "Transmission electron microscopy of oligomer preparation", "format": "physicochemical", "conditions": "TEM, 100 µM oAβ42, 1% uranyl acetate stain, 32,000×", "experimental": "Aβ42 oligomers were applied to formvar-coated 300-mesh copper grids for 2 min and excess fluid was filtered off. The samples were then stained with 1% uranyl acetate for 1 min, excess fluid was filtered off and the grids were examined with H-8100 transmission electron microscope (Hitachi, Tokyo, Japan) operated at 150 KV and 32,000× magnification."}, "U87 cells [3]": {"test_system": "U87 cells", "assay": "Localization of internalized Aβ42 within the endolysosomal system", "format": "cell-based, human", "conditions": "live-cell confocal; for fraction transported into early endosomes (EGFP-Rab5): U87 cells transfected with EGFP-Rab5, 0.4 µM peptide for 15 min, 30 min, 1 h or 2 h; for fraction localized to Lysotracker Green positive vesicles (lysosomes): U87 cells, 0.4 µM peptide for 30 min to 3 h, 50 nM LysoTracker Green", "experimental": "The trafficking of fluro-tagged monomeric and oligomeric Aβ42 was measured as follows. To examine the localization in early endosomes, cells were transfected with EGFP-Rab5 plasmid to label early endosomes. 24 h after transfection, cells were treated with Aβ42 peptides for indicated time periods. After changing with the fresh imaging medium, live cell imaging was then taken using a confocal microscope with an objective heater (set at 37°C). To examine the localization of peptides in lysosomes, plain cells were first treated with Aβ42 peptides for indicated time periods, and 30 min before taking imaging, lysotracker Green were supplemented in the incubation medium (50 nM) to label lysosomes. Afterwards, fresh medium was changed and live cell imaging was taken.\nImages were deconvolved using AutoQuant, a 50-pixel-wide rolling-ball subtraction algorithm was subsequently used to remove background noise. The sub-stacks of 3 sections spanning 0.4 µm were generated and imported to ImageJ for analysis. Manders’ coefficient was calculated using ImageJ plugin “JACop”. The percentage was scored as the Aβ puncta signals that are positive for EGFP-Rab5 or Lysotracker Green signals with respect to the total number of Aβ puncta."}, "U87 cells [4]": {"test_system": "U87 cells", "method": "Cells were incubated in fresh DMEM containing 0.4 µM fluro-tagged Aβ42 monomers or oligomers for 2 h. After extensively wash, cells were chased in fresh completed medium with indicated times up to 72 hours. Cells were subsequently fixed, stained with DAPI and mounted as described above. Images acquisition and analysis were performed as described below.\nEstimation of the half-life and rate constants for degradation of Aβ42 peptides were made by fitting data using a single-phase exponential decay equation (Origin, ver. 6.0)."}, "U87 cells [5]": {"test_system": "U87 cells", "remark": "listed apart in the source", "method": "Cells maintained in the serum free medium without Aβ were used as negative control. Following addition of 20 µl MTS reagent into each well, plates were incubated at 37°C for 4 h. The formazan product was quantified by measuring absorbance at 490 nm with a Microplate Reader (Molecular Devices, Sunnyvale, CA, USA). All the experiments were repeated three times."}}, "note": "Where a name gives a salt, the structure may show the parent alone.", "data": [{"compound": "Aβ: Aβ used by Wang et al. (ref 36, amyloid-beta1–42) on U87 cells", "values": [{"measurement": "viability of U87 cells", "setting": "astrocytic U87 cells; autophagic cell death", "result": "did decrease"}, {"measurement": "apoptosis of U87 cells", "setting": "astrocytic U87 cells", "result": "not induced to undergo apoptosis"}]}, {"compound": "O=C(N/N=C/c1ccc(O)c(O)c1)c1cc2ccccc2cc1O", "note": "[Dynasore]", "values": [{"measurement": "oAβ42 entry after Dynasore treatment", "setting": "[1]; Dynasore pretreatment, then oAβ42 2 h at 37°C, confocal microscopy", "result": "almost entirely blocked"}, {"measurement": "internalization of sAβ42 after Dynasore treatment", "setting": "[1]; Dynasore pretreatment, then sAβ42 2 h at 37°C, confocal microscopy", "result": "strongly blocked"}]}, {"compound": "N=C(N)NC(=O)c1nc(Cl)c(N)nc1N", "note": "[amiloride, Amiloride hydrochloride hydrate]", "values": [{"measurement": "reduction of oAβ42 uptake by U87 cells", "setting": "[1]", "result": 92, "unit": "%"}, {"measurement": "reduction of sAβ42 uptake by U87 cells", "setting": "[1]", "result": 61, "unit": "%"}]}, {"compound": "Methyl-β-cyclodextrin [MβCD]", "values": [{"measurement": "reduction of oAβ42 uptake by U87 cells", "setting": "[1]", "result": 48, "unit": "%"}, {"measurement": "reduction of sAβ42 uptake by U87 cells", "setting": "[1]", "result": 46, "unit": "%"}]}, {"compound": "oAβ42: protofibril, an oligomeric assembly of Aβ42 prepared from sAβ42 at pH 2.0, 37°C, 24 h", "values": [{"measurement": "effect of Dyn 1 dominant-negative K44A mutant on uptake", "setting": "[1]", "result": "no effect"}, {"measurement": "ThT fluorescence after titration with Aβ42 solution", "setting": "ThT fluorescence assay", "result": "increased in a nearly linear-manner"}, {"measurement": "average length of oligomers on electron micrographs", "setting": "[2]", "result": "< 150", "unit": "nm"}, {"measurement": "diameter of oligomers on electron micrographs", "setting": "[2]", "result": "approximately 5 nm"}, {"measurement": "fraction transported into early endosomes (EGFP-Rab5)", "setting": "U87 cells [3]", "result": "low fraction"}, {"measurement": "fraction localized to Lysotracker Green positive vesicles (lysosomes)", "setting": "U87 cells [3]", "result": "increased with prolonged Aβ42 treating time"}, {"measurement": "half-time (t0.5) of degradation in U87 cells", "setting": "U87 cells [4]", "result": 8.31, "unit": "h"}, {"measurement": "U87 cell growth / viability", "setting": "U87 cells [5]", "result": "not inhibited"}]}, {"compound": "COC[C@H]1OC(=O)c2coc3c2[C@@]1(C)C1=C(C3=O)[C@@H]2CCC(=O)[C@@]2(C)C[C@H]1OC(C)=O", "note": "[wortmannin]", "values": [{"measurement": "reduction of oAβ42 uptake by U87 cells", "setting": "[1]", "result": 37, "unit": "%"}, {"measurement": "reduction of sAβ42 uptake by U87 cells", "setting": "[1]", "result": 55, "unit": "%"}]}, {"compound": "sAβ42: soluble monomeric HiLyte Fluor555-labeled Aβ42 (Anaspec) dissolved in 0.1% NH4OH", "values": [{"measurement": "effect of Dyn 1 dominant-negative K44A mutant on uptake", "setting": "[1]", "result": "no effect"}, {"measurement": "ThT fluorescence after titration with Aβ42 solution", "setting": "ThT fluorescence assay", "result": "basal fluorescence level"}, {"measurement": "fraction transported into early endosomes (EGFP-Rab5)", "setting": "U87 cells [3]", "result": "low fraction"}, {"measurement": "fraction localized to Lysotracker Green positive vesicles (lysosomes)", "setting": "U87 cells [3]", "result": "increased with prolonged Aβ42 treating time"}, {"measurement": "half-time (t0.5) of degradation in U87 cells", "setting": "U87 cells [4]", "result": 2.68, "unit": "h"}, {"measurement": "U87 cell growth / viability", "setting": "U87 cells [5]", "result": "not inhibited"}]}]}
